Test in all cases: inhibition of tumour cell growth, NCI panel, 48 h
The test system of assay [1] is 786-0 renal.
In assay [2] the test system is A498 renal.
Assay [3] relates to EKVX NSCLC.
In assay [4] the test system is HCT-116 colon.
Assay [5] relates to HL-60(TB) leukemia.
For assay [6], the system named is HOP-62 NSCLC.
For assay [7], the system named is SK-MEL-2 melanoma.
Assay [8] relates to UACC-62 melanoma.
The subject of assay [9] is SK-MEL-28 melanoma.

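Exposure lasted 48 hours, with cells grown in 96-well plates and compounds tested at five concentrations. Definition used: TGI = concentration required for complete inhibition of growth.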 A value given as a limit tells only on which side of the number the result lay.

For `Cc1[nH]c2ccccc2c1C1Cc2ccccc2N1C(=O)/C=C/C(=O)O` (stereo not drawn), the TGI in assay [1], in [2], in [3], in assay [4], in [5] and in assay [6] was greater than 100 µM throughout. Besides, the TGI in [7] and in assay [8] was greater than 100 µM in each case.
With `COc1ccc2ccccc2c1C1OC(=O)c2ccccc21` (stereo not drawn), the TGI in [1], in assay [2], in [3], in assay [5], in [6] and in [8] was greater than 100 µM throughout.
`COc1ccc(OC)c2c1C(=O)C1CC1(Br)C2=O` (stereo not drawn): the TGI in assay [1], in [2], in [3], in assay [4], in [5] and in assay [6] was greater than 100 µM throughout. Moreover, the TGI in assay [7], in [9] and in assay [8] was greater than 100 µM in each case.
Take `CN(/N=C/c1cccc2cccnc12)c1ccccc1`: the TGI in assay [1], in [2], in [3], in [5], in [6] and in assay [7] was greater than 100 µM in each case. Also, the TGI in [9] and in assay [8] was greater than 100 µM throughout.
For the molecule `[N-]=[N+]=NC(CI)c1cn([C@H]2C[C@H](O)[C@@H](CO)O2)c(=O)[nH]c1=O` (stereo partly drawn), the TGI in assay [1], in assay [3], in assay [4], in [5], in [6] and in assay [7] was greater than 100 µM in each case. Further, the TGI in [9] and in assay [8] was greater than 100 µM throughout.
With `CC(C)c1cccc2sc(NC(=O)C(=O)C(C#N)c3cccc4ccccc34)nc12` (stereo not drawn), the TGI is greater than 100 µM in [1]; greater than 100 µM in assay [2]; 67.2 µM in [3]; greater than 100 µM in assay [4]; greater than 100 µM in assay [5]; greater than 100 µM in assay [6]. Moreover, the TGI in [7], in assay [9] and in assay [8] was greater than 100 µM each time.
As for `O=c1c2ccccc2nc(-c2ccccc2)n1NC1OC(CO)C(O)C(O)C1O` (stereo not drawn), the TGI in assay [1], in [2], in assay [3], in assay [4], in assay [5] and in assay [6] was greater than 100 µM each time. For the same molecule, the TGI in assay [7], in assay [9] and in [8] was greater than 100 µM in each case.
With `CCOC(=O)C(=Cc1cccnc1C)C(=O)OCC`, the TGI is 20.8 µM in assay [1]; 31 µM in [2]; 42.1 µM in [3]; 17.9 µM in [4]; greater than 100 µM in [5]; 40.7 µM in [6]. The TGI in assay [7] turned out to be 16 µM; in [9] it was 36.5 µM; in assay [8] it was 20.1 µM.
Consider `Cc1ccccc1NC(=O)C(=O)CC(=O)c1c(C)n([O-])c2ccccc2[n+]1=O`, for which the TGI in assay [1], in assay [2], in [3], in [4], in assay [6] and in assay [7] was greater than 100 µM in each case. The TGI in [9] and in assay [8] was greater than 100 µM in each case.
Regarding `O=CN/C=C/c1ccc(O)c(O)c1`, the TGI in assay [1], in [2], in [3], in assay [4], in [5] and in [6] was greater than 100 µM in each case. The TGI in assay [7], in assay [9] and in [8] was greater than 100 µM each time.
Turning to `CCOC(=O)NC(=O)c1cn(CCN2CCN(c3ncnc4nc[nH]c34)CC2)c(=O)[nH]c1=O`, the TGI in assay [1], in assay [2], in [3], in assay [4], in assay [5] and in assay [6] was greater than 100 µM throughout. Besides, the TGI in assay [7], in [9] and in assay [8] was greater than 100 µM each time.
As to `Cc1ccc(Nc2nc(C)c(C(/C=C/c3ccc(/C=C/C(=N/NC(=O)C[n+]4ccccc4)c4sc(Nc5ccc(C)cc5[N+](=O)[O-])nc4C)cc3)=N\NC(=O)C[n+]3ccccc3)s2)c([N+](=O)[O-])c1`, the TGI in assay [1], in assay [3], in [4], in assay [5], in [6] and in assay [7] was greater than 100 µM in each case. In addition, the TGI in [9] is greater than 100 µM; in assay [8], 67 µM.
Consider `Cc1cc(Cl)ccc1NC(=O)CC/C(CC(=O)C(C)C)=N\NC(=O)C[n+]1ccccc1`, for which the TGI in [1], in assay [2], in assay [3], in assay [4], in [5] and in [6] was greater than 100 µM each time. For the same molecule, the TGI in assay [7], in assay [9] and in assay [8] was greater than 100 µM each time.
For the molecule `COC(=O)CCC(NC(=S)N/N=C/c1ccco1)C(=O)OC` (stereo not drawn), the TGI in assay [1], in assay [2], in assay [3], in assay [4], in assay [5] and in [6] was greater than 100 µM throughout. For the same molecule, the TGI in assay [7], in assay [9] and in assay [8] was greater than 100 µM throughout.
In the case of `COc1ccc(C2=NN(c3ccccc3)C[N+](c3ccc(OC)cc3)=N2)cc1`, the TGI in [1], in [2], in [3], in assay [4], in assay [5] and in assay [6] was greater than 100 µM throughout. Also, the TGI in assay [9] is greater than 100 µM.
`COc1ccc(C(C#N)Cc2cc(OC)c(OC)c(OC)c2)cc1` (stereo not drawn): the TGI in [1] was greater than 100 µM; in [2], 73.1 µM; in [3], greater than 100 µM; in [4], greater than 100 µM; in assay [5], 64.3 µM; in assay [6], greater than 100 µM. For the same molecule, the TGI in [9] and in [8] was greater than 100 µM in each case.

The record behind these values is PubChem BioAssay (NCI).
